Laboratory results from patent US20080233210A1, “Co-Biocidal Formulation for Polymeric Materials” (U.S. BORAX INC., priority 2005, published 2008).

Assays:
[1] = test system: Aspergillus niger, Penicillium pinophilum, Chetomium globusum, Gliocladium virens, Aurebasidium pullulans; assay: ASTM G-21 fungi resistance of extruded wood/thermoplastic composite boards, unweathered or after QUV accelerated weathering with leaching; type: cell-based; set-up: key to Visual Assessment of Fungal Growth (0-4 scale) / Visual assessment of fungal growth, ZB = 2%, Weathering 0 h: 0: None; Traces of growth (less than 10%); 2: Light growth (10 to 30%); Medium growth (more than 30 to 60%); 4: Heavy growth (60% to complete coverage); details: for Visual Assessment of Fungal Growth (0-4 scale): pine WPC without UV stabilizer; for Visual Assessment of Fungal Growth (0-4 scale) / visual assessment, 0-4 fungal growth assessment scale: cobiocide content 0% (borate alone); for visual assessment, 0-4 fungal growth assessment scale: oak WPC, no UV stabilizer package
Description: Three 50×50×4 mm specimens were cut from the core of extruded boards, sterilized with a 30 kGy dose of Electron beam radiation and exposed to fungi attack according to ASTM G-21.
After 28 days exposure to the fungi at 98% relative humidity and 28° C., specimens were evaluated using the first scale, from 0-4 as recommended by ASTM G-21 (see Table 3). Results are shown in Table 4 with the summary in Tables 5-7.
Samples prepared according to Example 1 were exposed to accelerated weathering using a QUV accelerated weathering chamber with fluorescent bulb combined with leaching cycle. […] This includes cycles comprised of 8 h UV light (UVA 340 lamps @0.77 W/m^2/nm) @60° C. followed by 4 hours condensation @50° C. Samples were exposed to these conditions for 15 hours and then leached in water. Leaching consisted of 4 hours soaking and 3 hours drip dry (1 hours was required for sample handling). […] After exposure, three 1″×2.5″×⅛″ specimens were cut from the sample. The surface exposed to light and leaching and tested for fungi resistance as described in example 2. Results are presented in Table 3 with summary in Tables 4-6
Samples prepared according to Example 1 were exposed to accelerated weathering using a QUV accelerated weathering chamber with fluorescent bulb combined with leaching cycle. Total exposure time was 1000 hours. This includes cycles comprised of 8 h UV light (UVA 340 lamps @0.77 W/m^2/nm) @60° C. followed by 4 hours condensation @50° C. Samples were exposed to these conditions for 16 hours and then leached in water. Leaching consisted of 4 hours soaking and 3 hours drip dry (1 h was required for sample handling). […] After exposure, three 1″×2.5″×⅛″ specimens were cut from the sample. The surface exposed to light and leaching and tested for fungi resistance as described in Example 2. Results are presented in Table 3 with summary in Tables 4-6.

[2] = test system: Aspergillus niger, Penicillium pinophilum, Chetomium globusum, Gliocladium virens, Aurebasidium pullulans; assay: ASTM G-21 fungi exposure of dried paint coating films; type: cell-based; details: coating film, ASTM G-21, 28 days; very high concentrations of Chlortram (0.33%)
Description: The coatings were cast on flat polyethylene sheeting and dried into 10 mil thick film before removal from the polyethylene substrate. The dried paint coatings were cut into 2″×2″ square specimens, sterilized with 30 kGy EB radiation and exposed to fungi attack according to ASTM G-21. After 28 days exposure to the fungi at 98% relative humidity and 28° C., the specimens were evaluated using two scales.

Compound: OB(O)O [BA]
- Visual Assessment of Fungal Growth (0-4 scale) ([1]; BA = 1%, weathering 0 hours): 4 (Heavy growth (60% to complete coverage))
- Visual Assessment of Fungal Growth (0-4 scale) ([1]; BA = 2%, weathering 0 hours): 3 (Medium growth (more than 30 to 60%))

Compound: N#Cc1c(Cl)c(Cl)c(Cl)c(C#N)c1Cl [Chlortram, 2,4,5,6 tetrachloro-1,3-benzene-dicarbonitrile]
- fungal growth observed on coating specimens [2]: No fungal growth

Compound: Zinc borate [ZB]
- visual assessment, 0-4 fungal growth assessment scale ([1]; ZB = 1%, weathering 0 h): 4 (Heavy growth (60% to complete coverage))
- visual assessment, 0-4 fungal growth assessment scale ([1]; ZB = 1%, weathering 500 h): 4 (Heavy growth (60% to complete coverage))
- visual assessment, 0-4 fungal growth assessment scale ([1]; ZB = 1%, weathering 1000 h): 3 (Medium growth (more than 30 to 60%))
- visual assessment, 0-4 fungal growth assessment scale ([1]; ZB = 1.5%, weathering 0 h): 2 (Light growth (10 to 30%))
- visual assessment, 0-4 fungal growth assessment scale ([1]; ZB = 2%, weathering 0 h): 2 (Light growth (10 to 30%))
- visual assessment, 0-4 fungal growth assessment scale ([1]; ZB = 2%, weathering 500 h): 3 (Medium growth (more than 30 to 60%))
- visual assessment, 0-4 fungal growth assessment scale ([1]; ZB = 2%, weathering 1000 h): 3 (Medium growth (more than 30 to 60%))
- Visual assessment of fungal growth, ZB = 1%, Weathering 0 h ([1]; pine WPC with UV stabilizer package, cobiocide content 0%, ZB = 1%, 0 h): 1 (Traces of growth (less than 10%))
- Visual assessment of fungal growth, ZB = 1%, Weathering 500 h ([1]; pine WPC with UV stabilizer package, cobiocide content 0%, ZB = 1%, 500 h): 4 (Heavy growth (60% to complete coverage))
- Visual assessment of fungal growth, ZB = 1%, Weathering 1000 h ([1]; pine WPC with UV stabilizer package, cobiocide content 0%, ZB = 1%, 1000 h): 4 (Heavy growth (60% to complete coverage))
- Visual assessment of fungal growth, ZB = 2%, Weathering 0 h ([1]; pine WPC with UV stabilizer package, cobiocide content 0%, ZB = 2%, 0 h): 0
- Visual assessment of fungal growth, ZB = 2%, Weathering 500 h ([1]; pine WPC with UV stabilizer package, cobiocide content 0%, ZB = 2%, 500 h): 3 (Medium growth (more than 30 to 60%))
- Visual assessment of fungal growth, ZB = 2%, Weathering 1000 h ([1]; pine WPC with UV stabilizer package, cobiocide content 0%, ZB = 2%, 1000 h): 4 (Heavy growth (60% to complete coverage))
- Visual Assessment of Fungal Growth (0-4 scale) ([1]; ZB = 1%, weathering 0 h): 2 (Light growth (10 to 30%))
- Visual Assessment of Fungal Growth (0-4 scale) ([1]; ZB = 1%, weathering 500 h): 4 (Heavy growth (60% to complete coverage))
- Visual Assessment of Fungal Growth (0-4 scale) ([1]; ZB = 1%, weathering 1000 h): 4 (Heavy growth (60% to complete coverage))
- Visual Assessment of Fungal Growth (0-4 scale) ([1]; ZB = 1.5%, weathering 0 hours): 1 (Traces of growth (less than 10%))
- Visual Assessment of Fungal Growth (0-4 scale) ([1]; ZB = 2%, weathering 0 h): 0
- Visual Assessment of Fungal Growth (0-4 scale) ([1]; ZB = 2%, weathering 500 h): 4 (Heavy growth (60% to complete coverage))
